# Assay results taken from patent US20120046317A1, “NOVEL HETEROCYCLIC COMPOUNDS” (priority 2009, published 2012).
# Key:
# [1] = tested on: AGE-BSA Formation (Bovine Serum Albumin incubated with ribose); assay: In vitro prevention of advanced glycation endproducts (AGEs) accumulation: BSA incubated with ribose, fluorescence; conditions: one week
# Description: A reduction in fluorescence intensity in the presence of the test compound is an indication of its ability to prevent accumulation of advanced glycation endproducts.
# Bovine Serum Albumin was incubated with ribose alone as well as with ribose and different concentrations of the following compounds under aseptic conditions for one week. At the end of the incubation period fluorescence intensity of the samples was measured at excitation and emission wavelengths of 355 nm and 460 nm respectively.
# [2] = tested on: AGE-LDL formation (Low density lipoprotein incubated with CuCl2); assay: In vitro inhibition of AGE-LDL formation: LDL incubated with CuCl2, MDA-lysine adduct fluorescence; type: biochemical; conditions: LDL with CuCl2 at 37° C.
# Description: In vitro Inhibition of AGE-LDL Formation:
# Low density lipoprotein (LDL) was incubated with CuCl2 at 37° C. in phosphate buffered saline in the presence and absence of the following compounds. […] Results were expressed as % MDA-lysine adducts accumulation, considering the extent of the same formed upon incubation with CuCl2 alone as 100%.
% Inhibition of AGE-BSA Formation ([1]; Conc. 100 uM),% Inhibition of AGE-BSA Formation ([1]; Conc. 1 mM),Compound,% Inhibition of AGE-LDL-formation ([2]; Conc. 100 uM),% Inhibition of AGE-LDL-formation ([2]; Conc. 250 uM),further results
+ (+ indicate 0-10%),,"CC(C)(C)c1ccc(S(=O)(=O)NNC(=O)C2CCCN(CC(=O)c3cccs3)C2)cc1 (centres unmarked) [compound 165, N′-[(4-tert-butylphenyl)sulfonyl]-1-[2-oxo-2-(thiophen-2-yl)ethyl]piperidine-3-carbohydrazide]",+ (+ indicate 0-10%),,
+ (+ indicate 0-10%),,"COc1ccc(C2=CN(CC(=O)c3cccs3)C=C(C(=O)NNS(C)(=O)=O)C2)cc1 [compound 151, 5-(4-methoxyphenyl)-N′-(methylsulfonyl)-1-[2-oxo-2-(thiophen-2-yl)ethyl]-1,4-dihydropyridine-3-carbohydrazide]",+ (+ indicate 0-10%),,
,+ (+ indicate 0-10%),"CS(=O)(=O)NNC(=O)C1CCCN(CC(=O)c2cccs2)C1 (centres unmarked) [compound 184, N′-(methylsulfonyl)-1-[2-oxo-2-(thiophen-2-yl)ethyl]piperidine-3-carbohydrazide]",,+++ (+++ indicate 21-30%),
,+ (+ indicate 0-10%),"O=C(NCCO)C1=CN(CC(=O)c2ccc(Br)cc2)C=CC1 [compound 148, 1-[2-(4-bromophenyl)-2-oxoethyl]-N-(2-hydroxyethyl)-1,4-dihydropyridine-3-carboxamide]",,,
,+++ (+++ indicate 21-30%),"CS(=O)(=O)NNC(=O)C1=CN(CC(=O)c2cccs2)CCC1 [compound 183, N′-(methylsulfonyl)-1-[2-oxo-2-(thiophen-2-yl)ethyl]-1,4,5,6-tetrahydropyridine-3-carbohydrazide]",,++ (++ indicate 11-20%),
,+ (+ indicate 0-10%),"CS(=O)(=O)NNC(=O)C1=CN(CC(=O)c2cccs2)CCC1 [compound 187, N′-(methylsulfonyl)-1-[2-oxo-2-(thiophen-2-yl)ethyl]-1,4,5,6-tetrahydropyridine-3-carbohydrazide]",,,
,+ (+ indicate 0-10%),"CS(=O)(=O)NNC(=O)C1C=CCN(CC(=O)c2cccs2)C1 (centres unmarked) [compound 186, N′-(methylsulfonyl)-1-[2-oxo-2-(thiophen-2-yl)ethyl]-1,2,3,6-tetrahydropyridine-3-carbohydrazide]",,++++ (++++ indicate >30%),
+ (+ indicate 0-10%),,"O=C(NNC(=O)C1=CCCN(CC(=O)c2cccs2)C1)Nc1ccc(Cl)cc1 [compound 171, N-(4-chlorophenyl)-2-({1-[2-oxo-2-(thiophen-2-yl)ethyl]-1,2,5,6-tetrahydropyridin-3-yl}carbonyl)hydrazinecarboxamide]",+ (+ indicate 0-10%),,
+ (+ indicate 0-10%),,"O=C(NNS(=O)(=O)c1ccccc1)C1=CCCN(CC(=O)c2cccs2)C1 [compound 169, 1-[2-oxo-2-(thiophen-2-yl)ethyl]-N′-(phenylsulfonyl)-1,2,5,6-tetrahydropyridine-3-carbohydrazide]",+ (+ indicate 0-10%),,
+ (+ indicate 0-10%),,"O=C(CN1CCCC(C(=O)NNS(=O)(=O)c2ccccc2)C1)c1cccs1 (centres unmarked) [compound 160, 1-[2-oxo-2-(thiophen-2-yl)ethyl]-N′-(phenylsulfonyl)piperidine-3-carbohydrazide]",+ (+ indicate 0-10%),,

# The remaining lines, values behind:
Compound,% Inhibition of AGE-BSA Formation ([1]; Conc. 100 uM),% Inhibition of AGE-BSA Formation ([1]; Conc. 1 mM),% Inhibition of AGE-LDL-formation ([2]; Conc. 100 uM),% Inhibition of AGE-LDL-formation ([2]; Conc. 250 uM),further results
"COc1ccc(C(=O)CN2CC=CC(C(=O)NNS(C)(=O)=O)C2)cc1 (centres unmarked) [compound 181, 1-[2-(4-methoxyphenyl)-2-oxoethyl]-N′-(methylsulfonyl)-1,2,3,6-tetrahydropyridine-3-carbohydrazide]",,,+ (+ indicate 0-10%),,% Inhibition of AGE-BSA Formation ([1]; Conc. 250 uM): + (+ indicate 0-10%)
"Cc1ccc(S(=O)(=O)NNC(=O)C2=CN(CC(=O)c3cccs3)C=CC2)cc1 [compound 147, N′-[(4-methylphenyl)sulfonyl]-1-[2-oxo-2-(thiophen-2-yl)ethyl]-1,4-dihydropyridine-3-carbohydrazide]",+++ (+++ indicate 21-30%),,++++ (++++ indicate >30%),,
"CS(=O)(=O)NNC(=O)C1=CCCN(CC(=O)c2ccc(Br)cc2)C1 [compound 167, 1-[2-(4-bromophenyl)-2-oxoethyl]-N′-(methylsulfonyl)-1,2,5,6-tetrahydropyridine-3-carbohydrazide]",,+ (+ indicate 0-10%),,+ (+ indicate 0-10%),
"O=C(NCCO)C1=CN(CC(=O)c2cccs2)CCC1 [compound 158, N-(2-hydroxyethyl)-1-[2-oxo-2-(thiophen-2-yl)ethyl]-1,4,5,6-tetrahydropyridine-3-carboxamide]",,,+ (+ indicate 0-10%),,% Inhibition of AGE-BSA Formation ([1]; Conc. 250 uM): + (+ indicate 0-10%)
"COc1ccc(C(=O)CN2C=CCC(C(=O)NNS(C)(=O)=O)=C2)cc1 [compound 144, 1-[2-(4-methoxyphenyl)-2-oxoethyl]-N′-(methylsulfonyl)-1,4-dihydropyridine-3-carbohydrazide]",,+ (+ indicate 0-10%),,++++ (++++ indicate >30%),
"COc1ccc(C(=O)CN2CCCC(C(=O)NNS(C)(=O)=O)C2)cc1 (centres unmarked) [compound 163, 1-[2-(4-methoxyphenyl)-2-oxoethyl]-N′-(methylsulfonyl)piperidine-3-carbohydrazide]",,,+ (+ indicate 0-10%),,% Inhibition of AGE-BSA Formation ([1]; Conc. 250 uM): + (+ indicate 0-10%)
"COc1ccc(C(=O)CN2CCCC(C(=O)NNS(=O)(=O)c3ccc(C)cc3)C2)cc1 (centres unmarked) [compound 162, 1-[2-(4-methoxyphenyl)-2-oxoethyl]-N′-[(4-methylphenyl)sulfonyl]piperidine-3-carbohydrazide]",+ (+ indicate 0-10%),,++++ (++++ indicate >30%),,
"CS(=O)(=O)NNC(=O)C1=CN(CC(=O)c2ccc(Cl)cc2Cl)C=CC1 [compound 168, 1-[2-(2,4-dichlorophenyl)-2-oxoethyl]-N′-(methylsulfonyl)-1,4-dihydropyridine-3-carbohydrazide]",+ (+ indicate 0-10%),,+ (+ indicate 0-10%),,
"COc1ccc(C(=O)CN2CCC=C(C(=O)NNS(=O)(=O)c3ccc(C)cc3)C2)cc1 [compound 173, 1-[2-(4-methoxyphenyl)-2-oxoethyl]-N′-[(4-methylphenyl)sulfonyl]-1,2,5,6-tetrahydropyridine-3-carbohydrazide]",+ (+ indicate 0-10%),,+ (+ indicate 0-10%),,
"CS(=O)(=O)NNC(=O)C1=CN(CC(=O)c2ccc(Br)cc2)C=CC1 [compound 143, 1-[2-(4-bromophenyl)-2-oxoethyl]-N′-(methylsulfonyl)-1,4-dihydropyridine-3-carbohydrazide]",+ (+ indicate 0-10%),,++++ (++++ indicate >30%),,
"Cc1ccc(C(=O)CN2C=CCC(C(=O)NNS(C)(=O)=O)=C2)s1 [Compound no. 13, N′-(methylsulfonyl)-1-[2-(5-methylthiophen-2-yl)-2-oxoethyl]-1,4-dihydropyridine-3-carbohydrazide]",,+++ (+++ indicate 21-30%),,++++ (++++ indicate >30%),
"O=C(CN1C=CCC(C(=O)NCCOC(=O)c2ccccc2)=C1)Nc1ccccc1 [Compound no. 107, 2-[({1-[2-oxo-2-(phenylamino)ethyl]-1,4-dihydropyridin-3-yl}carbonyl)amino]ethyl benzoate]",,,+ (+ indicate 0-10%),,
"Cc1ccc(S(=O)(=O)NNC(=O)C2=CN(CC(=O)Nc3ccccc3)C=CC2)cc1 [compound 145, 2-[3-({2-[(4-methylphenyl)sulfonyl]hydrazinyl}carbonyl)pyridin-1(4H)-yl]-N-phenylacetamide]",,,,+ (+ indicate 0-10%),% Inhibition of AGE-BSA Formation ([1]; Conc. 250 uM): + (+ indicate 0-10%)
"COc1ccc(C(=O)CN2CCC=C(C(=O)NNS(C)(=O)=O)C2)cc1 [compound 172, 1-[2-(4-methoxyphenyl)-2-oxoethyl]-N′-(methylsulfonyl)-1,2,5,6-tetrahydropyridine-3-carbohydrazide]",,,,,% Inhibition of AGE-BSA Formation ([1]; Conc. 50 uM): + (+ indicate 0-10%); % Inhibition of AGE-LDL-formation ([2]; Conc. 50 uM): + (+ indicate 0-10%)
"Cc1ccc(C(=O)CN2CCC=C(C(=O)NNS(C)(=O)=O)C2)s1 [compound 174, N′-(methylsulfonyl)-1-[2-(5-methylthiophen-2-yl)-2-oxoethyl]-1,2,5,6-tetrahydropyridine-3-carbohydrazide]",,+ (+ indicate 0-10%),,++++ (++++ indicate >30%),
"Cc1ccc(C(=O)CN2CCCC(C(=O)NNS(C)(=O)=O)C2)s1 (centres unmarked) [compound 164, N′-(methylsulfonyl)-1-[2-(5-methylthiophen-2-yl)-2-oxoethyl]piperidine-3-carbohydrazide]",,+ (+ indicate 0-10%),,+ (+ indicate 0-10%),
"CS(=O)(=O)NNC(=O)C1=CN(CC(=O)c2ccc(Cl)s2)C=CC1 [Compound no. 6, 1-[2-(5-chlorothiophen-2-yl)-2-oxoethyl]-N′-(methylsulfonyl)-1,4-dihydropyridine-3-carbohydrazide]",,+++ (+++ indicate 21-30%),,++++ (++++ indicate >30%),
"Cc1ccc(C(=O)CN2CC=CC(C(=O)NNS(C)(=O)=O)C2)s1 (centres unmarked) [compound 182, N′-(methylsulfonyl)-1-[2-(5-methylthiophen-2-yl)-2-oxoethyl]-1,2,3,6-tetrahydropyridine-3-carbohydrazide]",,+ (+ indicate 0-10%),,+++ (+++ indicate 21-30%),
